Marks after values point to notes of the source that are not given here.
Experiments:
[1] = system: Picrotoxin (PIC) induced clonic seizure; test: animal or person; format: in vivo, ICR mice
[2] = system: ACTH-refractory infantile spasm (behavioral spasms); test: animal or person; format: in vivo, Sprague-Dawley rats; settings: for inhibition in vivo at 60 mg/kg: Rattus norvegicus, ip, read-out: ACTH-refractory IS (ip) Protection %, percentage of activity compared to the vehicle only; for ACTH-refractory IS (ip) Peak Time: rat, in vivo
[3] = system: PTZ (Pentylenetetrazol) induced clonic seizure; test: animal or person; format: in vivo, ICR mice; settings: for PTZ test (ip) in Mice Protection % / PTZ test (ip) in Mice Peak Time: mouse, in vivo
[4] = system: Lithium-pilocarpine induced status epilepticus; parameters: species or system Sprague-Dawley rats; settings: in vivo
[5] = system: PTZ (Pentylenetetrazol) induced clonic seizure; parameters: species or system SD rats; settings: rat, in vivo
[6] = system: Lithium-pilocarpine induced status epilepticus; parameters: species or system Sprague-Dawley rats; settings: in vivo; remark: listed apart in the source
[7] = Mus musculus, ip, read-out: PIC (ip) percentage of activity compared to the vehicle only

| Compound | responders at 50 mg/kg [1, 7] [%] | inhibition in vivo at 60 mg/kg [2] [%] | ACTH-refractory IS (ip) Peak Time [2] [h] | PTZ test (ip) in Mice Protection % [3] | Intervention (rat, iv) Protection % [4] | other results |
| --- | --- | --- | --- | --- | --- | --- |
| C[C@H](OC(N)=O)[C@@H](O)c1ccc(Cl)cc1Cl [Compound 36, 1-(2,4-dichlorophenyl)-(S)-1-hydroxypropyl-(S)-2-carbamate] | 50 | 37.5 | 3 | ^a20.4 (33.3%) |  |  |
| C[C@H](OC(=O)NC1CC1)[C@@H](O)c1ccccc1Cl [Compound 18, 1-(2-chlorophenyl)-(S)-1-hydroxypropyl-(R)-2-N-cyclopropylcarbamate] |  |  |  |  | ^a46 (66.7%) | PTZ test (ip) in Rats Protection % [5]: ^b30 (16.7%) |
| C[C@@H](OC(N)=O)[C@H](O)c1ccc(Cl)cc1Cl [Compound 45, 1-(2,4-dichlorophenyl)-(R)-1-hydroxypropyl-(R)-2-carbamate] |  |  |  | ^a20.4 (16.7%) | ^a46 (33.3%) | PTZ test (ip) in Rats Protection % [5]: ^b50 (16.7%) |
| C[C@@H](OC(N)=O)[C@@H](O)c1ccccc1Cl [Compound 4, 1-(2-chlorophenyl)-(S)-1-hydroxypropyl-(R)-2-carbamate] |  | 24.3 | 3 |  | ^a46 (100%) | responders at 30 mg/kg [1, 7]: 100%; PTZ test (ip) in Mice Peak Time ([3]; ip): 0.5 h |
| CCCNC(=O)OC(C)C(O)c1ccccc1Cl (racemic) [Compound 30, 1-(2-chlorophenyl)-1-hydroxypropyl-2-N-propylcarbamate] | 16.7 |  |  | ^a20.4 (33.3%) |  |  |
| C[C@H](OC(N)=O)[C@@H](O)c1ccccc1F [Compound 63, 1-(2-fluorophenyl)-(S)-1-hydroxypropyl-(S)-2-carbamate] |  |  |  |  | ^a46 (50%) | responders at 60 mg/kg [1, 7]: 33.3%; Prevention (rat, ip) Peak Time [6]: 0.25 h |
| CC[C@H](OC(N)=O)[C@@H](O)c1ccc(Cl)cc1Cl [Compound 39, 1-(2,4-dichlorophenyl)-(S)-1-hydroxybutyl-(S)-2-carbamate] | 66.7 |  |  |  |  | PTZ test (ip) in Mice Peak Time ([3]; ip): 0.5 h |
| C[C@H](OC(N)=O)[C@H](O)c1ccccc1Cl [Compound 5, 1-(2-chlorophenyl)-(R)-1-hydroxypropyl-(S)-2-carbamate] |  |  |  |  |  | PTZ test (ip) in Mice Peak Time ([3]; ip): 0.5 h |
| CC(C)NC(=O)OC(C)C(O)c1ccccc1Cl (racemic) [Compound 31, 1-(2-chlorophenyl)-1-hydroxypropyl-2-N-isopropylcarbamate] | 16.7 |  |  | ^a20.4 (83.3%) | ^a46 (100%) |  |
| C[C@@H](OC(=O)NC1CC1)[C@H](O)c1ccccc1Cl [Compound 25, 1-(2-chlorophenyl)-(R)-1-hydroxypropyl-(R)-2-N-cyclopropylcarbamate] |  |  |  | ^a20.4 (66.7%) | ^a46 (100%) |  |
| CCC(OC(N)=O)C(O)c1ccccc1Cl (racemic) [Compound 8, 1-(2-chlorophenyl)-1-hydroxybutyl-2-carbamate] | 33.3 |  |  |  | ^a46 (50%) |  |
| CCCC[C@H](OC(N)=O)[C@@H](O)c1c(Cl)cccc1Cl [Compound 44, 1-(2,6-dichlorophenyl)-(S)-1-hydroxyhexyl-(S)-2-carbamate] | 16.6 |  |  | ^a20.4 (33.3%) |  |  |
| CNC(=O)OC(C)C(O)c1ccccc1Cl (racemic) [Compound 29, 1-(2-chlorophenyl)-1-hydroxypropyl-2-N-methylcarbamate] |  |  |  | ^a20.4 (33.3%) |  |  |
| C[C@@H](OC(N)=O)[C@H](O)c1ccccc1Cl [Compound 2, 1-(2-chlorophenyl)-(R)-1-hydroxypropyl-(R)-2-carbamate] | 16.7 | 65.9 | 1 |  | ^a46 (50%) | Prevention (rat, ip) Peak Time [6]: 0.5 h; PTZ test (ip) in Mice Peak Time ([3]; ip): 0.5 h; PTZ test (ip) in Rats Peak Time [5]: 51.9 (*1) h |
| CC[C@H](OC(N)=O)[C@@H](O)c1ccccc1Cl [Compound 6, 1-(2-chlorophenyl)-(S)-1-hydroxybutyl-(S)-2-carbamate] | 66.7 | 76.2 | 3 |  | ^a46 (100%) | PTZ test (ip) in Mice Peak Time ([3]; ip): 0.5 h |
| CCCC[C@H](OC(N)=O)[C@@H](O)c1ccccc1Cl [Compound 12, 1-(2-chlorophenyl)-(S)-1-hydroxyhexyl-(S)-2-carbamate] | 16.7 |  |  | ^a20.4 (33.3%) |  |  |

| Compound | responders at 50 mg/kg [1, 7] [%] | inhibition in vivo at 60 mg/kg [2] [%] | ACTH-refractory IS (ip) Peak Time [2] [h] | PTZ test (ip) in Mice Protection % [3] | Intervention (rat, iv) Protection % [4] | other results |
| --- | --- | --- | --- | --- | --- | --- |
| C[C@@H](OC(N)=O)[C@H](O)c1cccc(Cl)c1Cl [Compound 47, 1-(2,3-dichlorophenyl)-(R)-1-hydroxypropyl-(R)-2-carbamate] |  | 91 | 3 |  |  |  |
| C[C@H](OC(N)=O)[C@@H](O)c1ccccc1I [Compound 65, 1-(2-iodophenyl)-(S)-1-hydroxypropyl-(S)-2-carbamate] |  | 92.1 | 3 | ^a20.4 (100%) | ^a46 (100%) | PIC (ip) percentage of activity compared to the vehicle only ([1]; mice, injection amount 50 mg/kg): 50^a (100%); Prevention (rat, ip) Peak Time [6]: 2 h |
| CC(OC(N)=O)C(O)c1ccccc1Cl (racemic) [Compound 3, 1-(2-chlorophenyl)-1-hydroxypropyl-2-carbamate] |  | 34 | 3 |  |  | responders at 10 mg/kg [1, 7]: 50%; Prevention (rat, ip) Peak Time [6]: 0.5 h; PTZ test (ip) in Mice Peak Time ([3]; ip): 0.5 h; PTZ test (ip) in Rats Peak Time [5]: 18.9 (*0.5) h |
| CCCCC(OC(N)=O)C(O)c1ccccc1Cl (racemic) [Compound 14, 1-(2-chlorophenyl)-1-hydroxyhexyl-2-carbamate] | 16.7 |  |  | ^a20.4 (16.7%) |  |  |
| CC[C@H](OC(N)=O)[C@@H](O)c1c(Cl)cccc1Cl [Compound 40, 1-(2,6-dichlorophenyl)-(S)-1-hydroxybutyl-(S)-2-carbamate] | 66.6 |  |  | ^a20.4 (33.3%) | ^a46 (100%) |  |
| CC[C@H](OC(N)=O)[C@@H](O)c1ccccc1I [Compound 67, 1-(2-iodophenyl)-(S)-1-hydroxybutyl-(S)-2-carbamate] | 83.3 | 81.1 | 2 |  | ^a46 (100%) | Prevention (rat, ip) Peak Time [6]: 0.5 h; PTZ test (ip) in Mice Peak Time ([3]; ip): 0.5 h; PTZ test (ip) in Rats Protection % [5]: ^b30 (33.3%) |
| C[C@@H](OC(N)=O)[C@H](O)c1c(Cl)cccc1Cl [Compound 46, 1-(2,6-dichlorophenyl)-(R)-1-hydroxypropyl-(R)-2-carbamate] | 33.3 | 78 | 3 |  | ^a46 (50%) |  |
| C[C@H](OC(N)=O)[C@@H](O)c1c(Cl)cccc1Cl [Compound 37, 1-(2,6-dichlorophenyl)-(S)-1-hydroxypropyl-(S)-2-carbamate] |  | 83.8 | 3 |  | ^a46 (100%) | ED50 ([1]; Mus musculus, ip, read-out: PIC (ip) ED50): 23.4 mg/kg; PIC (ip) Peak Time ([1]; mice): 0.25 h; PTZ test (ip) in Mice Peak Time ([3]; ip): 0.25 h |
| CC(C)[C@H](OC(N)=O)[C@@H](O)c1ccccc1Cl [Compound 9, 1-(2-chlorophenyl)-(S)-1-hydroxy-3-methyl-butyl-(S)-2-carbamate] | 16.7 |  |  | ^a20.4 (33.3%) |  |  |
| CC(OC(=O)NC1CC1)C(O)c1ccccc1Cl (racemic) [Compound 32, 1-(2-chlorophenyl)-1-hydroxypropyl-2-N-cyclopropylcarbamate] |  |  |  | ^a20.4 (16.7%) | ^a46 (100%) |  |
| CCCNC(=O)O[C@H](C)[C@H](O)c1ccccc1Cl [Compound 23, 1-(2-chlorophenyl)-(R)-1-hydroxypropyl-(R)-2-N-propylcarbamate] | 16.7 |  |  |  | ^a46 (100%) | responders at 20.4 mg/kg ([3]; Mus musculus, ip, read-out: PTZ test (ip) in Mice Protection %): 50% |
| CCCC[C@H](OC(N)=O)[C@@H](O)c1ccc(Cl)cc1Cl [Compound 43, 1-(2,4-dichlorophenyl)-(S)-1-hydroxyhexyl-(S)-2-carbamate] | 16.6 |  |  |  |  | PTZ test (ip) in Rats Protection % [5]: ^b25 (33.3%) |
| C[C@H](OC(N)=O)[C@@H](O)c1cccc(Cl)c1Cl [Compound 38, 1-(2,3-dichlorophenyl)-(S)-1-hydroxypropyl-(S)-2-carbamate] | 50 |  |  |  | ^a46 (50%) |  |
| CNC(=O)O[C@@H](C)[C@@H](O)c1ccccc1Cl [Compound 15, 1-(2-chlorophenyl)-(S)-1-hydroxypropyl-(S)-2-N-methylcarbamate] | 50 | 67.4 | 2 |  | ^a46 (100%) | PTZ test (ip) in Rats Protection % [5]: ^b25 (33.3%) |
| CCCC[C@@H](OC(N)=O)[C@H](O)c1ccccc1Cl [Compound 13, 1-(2-chlorophenyl)-(R)-1-hydroxyhexyl-(R)-2-carbamate] | 16.7 |  |  |  |  |  |
| CCCNC(=O)O[C@@H](C)[C@@H](O)c1ccccc1Cl [Compound 16, 1-(2-chlorophenyl)-(S)-1-hydroxypropyl-(S)-2-N-propylcarbamate] |  |  |  |  | ^a46 (100%) | PTZ test (ip) in Rats Protection % [5]: ^b30 (33.3%) |

Source: US9956197B2 (priority 2013, dated 2018)
